Data as given in PMC12463534, “Exploring the Anticancer Properties of 4-Phenylthiazole-Based Ru(II) and Os(II) Metallacycles Featuring 1-Methylimidazole as N-Donor Functionality” (Bioinorganic Chemistry and Applications, 2025).

Tests used:
[1] = test system: HCT116 colorectal cancer cell line (2D); assay: Resazurin assay, HCT116 2D (monolayer) culture; details: read-out: IC50 2D, resazurin assay, 96 h exposure
[2] = Ruthenium levels in tissues by ICP-MS; format: in vivo; details: CT26-bearing mice, 2 h after last injection
Procedure: Tumor-specific organs and blood serum, harvested from the other animals 2 h after the last injection (Figure 5(c)), were measured for the average ruthenium content by inductively coupled plasma mass spectrometry (ICP-MS) of tissue homogenates.
CT26 cells (5 × 10^5 cells in 50-μL serum-free medium) were injected subcutaneously (s.c.) into the right flank of 8–16-week-old BALB/c mice (Envigo Laboratories, San Pietro Al Natisone, Italy). After 3 days, therapy treatment started on five consecutive days for 2 weeks. Animals were treated i.p. with 50 mg/kg 1c and 3c (all dissolved in 10% DMSO in 0.9% NaCl, 12 mice per group). The solvent control animals received 10% DMSO in 0.9% NaCl. Every day, the animals were monitored for the overall health conditions and tumor size was measured regularly by caliper measurement. Tumor volumes (mm^3) were calculated using following formula: length × width^2/2. […] Tumor growth and possible side effects of the treatment were evaluated by daily recording the tumor size by caliper measurement and parameters of the animal's overall health conditions. In the tissue sampling arm at the experiment, the mice were sacrificed by cervical dislocation 2 h after the last treatment. Tumors as well as organs were collected. Additionally, blood was drawn and incubated for 25 min to allow blood clotting. To isolate serum and blood pellets, the blood was centrifuged for 10 min at 17,900 g at room temperature. The supernatant characterized as serum was transferred to a new tube and centrifuged again to remove residual red blood cells. All collected samples were stored at −20°C and further processed for platinum measurements via ICP-MS.
The ruthenium concentration was determined by ICP-MS analysis. Ruthenium and rhenium standards were derived from LabKings (LabKings B.V., The Netherlands). The total ruthenium content was determined with a quadrupole-based ICP-MS instrument Agilent 7800 (Agilent Technologies, Tokyo, Japan) equipped with the Agilent SPS 4 autosampler (Agilent Technologies, Tokyo, Japan) and a MicroMist nebulizer at a sample uptake rate of approximately 0.2 mL·min^−1. […] Argon was used as plasma gas (15 L·min^−1) and as carrier gas (∼1.08 L·min^−1). The integration time was set to 0.1 s, and measurements were performed in 6 replicates with 100 sweeps. Rhenium served as internal standard for ruthenium.

[3] = test system: SW480 colon adenocarcinoma cells; assay: MTT assay, inhibition of cancer cell growth, SW480; details: read-out: 50% inhibitory concentration SW480, exposure time 96 h
Procedure: (§1) CH1/PA-1 ovarian teratocarcinoma cells (CH1, RRID: CVCL_4992, provided by L. R. Kelland, CRC Center for Cancer Therapeutics, Institute of Cancer Research, Sutton, UK; confirmed by STR profiling as PA-1 ovarian teratocarcinoma cells at Multiplexion, Heidelberg, Germany), SW480 colon adenocarcinoma (RRID: CVCL_0546), and A549 lung adenocarcinoma cells (NCI-H2618, RRID: CVCL_A549; both cell lines were obtained from the American Type Culture Collection (ATCC), Manassas, VA, USA) were grown as adherent cultures in 75-cm^2 culture flasks (Starlab, Hamburg, Germany) by using minimal essential medium (MEM) supplemented with 1 mM sodium pyruvate, 4 mM L-glutamine, 1% (v/v) nonessential amino acids from 100-fold stock (all purchased from Sigma-Aldrich), and 10% heat-inactivated fetal bovine serum (Serana, Pessin, Germany).
(§2) The 3-(4,5-dimethylthiazol-2-yl)-2,5-diphenyl-2H tetrazolium bromide (MTT, Acros Organics, Geel, Belgium) assay was used to detect the cytotoxicity of the compounds after 96-h incubation. For this purpose, cells were harvested from culture flasks by trypsinization, seeded in 100-μL aliquots into 96-well microculture plates (Starlab, UK) in densities of 1 × 10^3 (CH1/PA-1), 2 × 10^3 (SW480), and 3 × 10^3 (A549) cells per well and incubated for 24 h prior to exposure to the test compounds. Stock solutions of test compounds were prepared in DMF, which were then diluted in MEM (not to exceed a final content of 0.5% v/v of organic solvent in the test plates), and serial dilutions were added in aliquots of 100 μL per well. […] After incubation for 4 h, the medium/MTT mixtures were removed, and the produced formazan crystals were dissolved in 150 μL DMSO per well. Optical densities at 550 nm were measured spectrophotometrically with a ELx808 Absorbance Microplate Reader (Bio-Tek, Winooski, VT, USA) by using a reference wavelength of 690 nm to correct for unspecific absorption.

Balb/c mice = assay: Toxicity experiments in Balb/c mice (MTD); details: mice, i.p.
Procedure: Finally, we were interested in the anticancer activity of selected complexes of our panel in an in vivo mouse setting. Before injecting the compounds in tumor-bearing mice, toxicity experiments were performed. […] On the last day of therapy, most animals were sacrificed and tissues as well as tumors collected. Only four mice (per group) were kept to get information on the impact of the drugs on the overall survival.

Solubility in 1% DMF/PBS = assay: Solubility in 1% DMF/PBS
Source text: Solubility is an important factor for the application of metallodrugs. DMF was used as solubilizer to allow comparison to the respective chlorido complexes where the usage of DMSO would lead to stable DMSO adducts.
As the coordinated p-cym and leaving groups are present in all synthesized complexes, we focused on the differently substituted 4-phenylthiazoles for estimated changes in lipophilicity.

CT26 tumor = assay: Anticancer activity in CT26 tumor-bearing BALB/c mice; format: in vivo; details: i.p. 50 mg/kg
Procedure: Figure 5 Anticancer activity of 1c and 3c in vivo. CT26-bearing BALB/c mice were treated i.p. with 50 mg/kg for five consecutive days for 2 weeks. (a) Impact on tumor growth; data are presented as mean ± SEM. […] On Day 15, most of the animals were sacrificed and tissues collected for further analyses. Of each group, 4 animals were kept to assess the impact on overall survival, which is shown in (b). Statistical significance was tested by log-rank test and Mantel–Cox post-test, ^∗p < 0.01. (c) The ruthenium levels measured by ICP-MS in the collected tissue samples of the mice, which were sacrificed 2 h after the last treatment.
CT26 cells (5 × 10^5 cells in 50-μL serum-free medium) were injected subcutaneously (s.c.) into the right flank of 8–16-week-old BALB/c mice (Envigo Laboratories, San Pietro Al Natisone, Italy). After 3 days, therapy treatment started on five consecutive days for 2 weeks. Animals were treated i.p. with 50 mg/kg 1c and 3c (all dissolved in 10% DMSO in 0.9% NaCl, 12 mice per group). The solvent control animals received 10% DMSO in 0.9% NaCl. Every day, the animals were monitored for the overall health conditions and tumor size was measured regularly by caliper measurement. Tumor volumes (mm^3) were calculated using following formula: length × width^2/2. In the overall survival arm of the experiment, mice were sacrificed by cervical dislocation in the case of a tumor length > 20 mm or tumor ulceration or a decreased body weight of ∼20%. Tumor growth and possible side effects of the treatment were evaluated by daily recording the tumor size by caliper measurement and parameters of the animal's overall health conditions. In the tissue sampling arm at the experiment, the mice were sacrificed by cervical dislocation 2 h after the last treatment. Tumors as well as organs were collected. Additionally, blood was drawn and incubated for 25 min to allow blood clotting. To isolate serum and blood pellets, the blood was centrifuged for 10 min at 17,900 g at room temperature. The supernatant characterized as serum was transferred to a new tube and centrifuged again to remove residual red blood cells. All collected samples were stored at −20°C and further processed for platinum measurements via ICP-MS.

[4] = Stability and reactivity in aqueous solution (1H-NMR, UV-vis)
Procedure: The exact concentration of the metal complex stock solutions was calculated on weight-in-volume basis. Complexes were dissolved in water in 1–5 mM concentration.
The path length was 1 cm.
^1H-NMR spectroscopic studies were carried out on a Bruker FT-NMR spectrometer AV NEO 500.10 MHz and a Bruker Avance III HD Ascend 500 Plus instrument. All ^1H-NMR spectra were recorded using a standard Bruker noesygppr1d pulse sequence to suppress water resonance. […] Samples contained 10% (v/v) D2O with a complex concentration of ca. 1 mM. Samples were prepared in pH 1.3 aqueous HCl solution or in pH 7.4 PBS.

[5] = test system: CH1/PA-1 ovarian teratocarcinoma cells; assay: MTT assay, inhibition of cancer cell growth, CH1/PA-1; details: read-out: 50% inhibitory concentration CH1, exposure time 96 h
Procedure: as §1, §2

[6] = test system: A549 lung adenocarcinoma cells; assay: MTT assay, inhibition of cancer cell growth, A549; details: read-out: 50% inhibitory concentration A549, exposure time 96 h
Procedure: as §1, §2

Structure (SMILES): Cc1ccc(C(C)C)cc1.Cn1cc[n+]([Ru-]2[c]3cc(S(C)(=O)=O)ccc3-c3csc[n+]32)c1.O=[N+]([O-])[O-] [Compound 3c, [((3-κN)-1-Methylimidazole)(4-(4-(methylsulfonyl)phenyl)thiazolato-κN,κC2′)(η^6-p-cymene)ruthenium(II)] Nitrate]
- IC50 [1]: > 200 µM
- Ruthenium level in liver [2]: ~20 mg/kg
- Ruthenium level in tumor [2]: ~1 mg/kg
- IC50 [3]: > 200 µM
- Tolerated dose (Balb/c mice): at least 50 mg/kg
- Solubility (Solubility in 1% DMF/PBS): 24.6 mM
- Impact on overall survival (CT26 tumor; 4 mice per group, log-rank test): significantly prolonged overall survival
- Impact on tumor volume (anticancer activity) (CT26 tumor; 5 times a week for two weeks, did not reach statistical significance): slight anticancer activity
- Survival of one animal (CT26 tumor; one animal): 48 days
- Sensitivity to chloride: replacement of coordinated MeIm ([4]; 3 M KCl, pH 7.4, UV-vis): could not replace coordinated MeIm
- Decomposition at pH 7.4 ([4]; PBS pH 7.4, 1 mM complex, 25°C, within 6 days, 1H-NMR): no decomposition
- Behaviour in acidic solution ([4]; pH = 1.0 or 1.3 (HCl), followed in time up to 6 days, 1H-NMR/UV-vis): decomposition
- Spectral change at pH 10.0 ([4]; pH = 10.0 (NaOH), within 2 days, UV-vis): no spectral change
- IC50 [5]: 102 ± 11 µM
- IC50 [6]: > 200 µM
